From patent US9187768B2, “Alcoholic fermentation yeast and method for producing ethanol using same” (NIPPON STEEL & SUMIKIN ENGINEERING CO., LTD., priority 2010, dated 2015) come the findings set out here.

In this assay the test system is general yeast. Put plainly: Ethanol fermentation by a general yeast with limonene added to YPD culture medium. It counts as cell-based, Saccharomyces Cerevisiae. Particulars: 0.1% v/v of limonene added. The text has this:
Generally, yeast is present in a sugar solution as fine solid particles and easily adsorbs oily substances. Therefore, the reason for the above-described experimental results may be that the limonene (in an oil form) added in a small amount (0.05% v/v) adsorbed to the yeast, causing fermentation inhibition. To remove limonene, which is a fermentation inhibitor, from a juice residue extract, limonene in a solid form, which accounts for 75% or larger of the total amount of limonene, must be removed, and limonene in a micelle form present as a light liquid (an oily substance) must also be removed. […] Therefore, fermentability tended to be unstable due to the influence of contamination etc. and it was difficult to maintain high fermentability over a long period of time.

As to `C=C(C)[C@H]1CC=C(C)CC1` [limonene], the “rate of ethanol production” value is recorded as “about 20%”.
